“Also recorded” adds a separate entry of the source. Where a SMILES comes first, the peptide text is derived from it. Bridges are numbered along the chain shown (N, C = ends).
Columns and labels:
[1] = test system: TNFα-mediated cytotoxicity in L929 cells; test: Neutralization of TNFα induced necrosis in L929 cells
Experimental: L929 cells were seeded at a density of 8000 cells/well in a 96-well plate and incubated for 24 h in RPMI 1640 with 10% FBS at 37 °C. The experiment was divided into a blank group, a control group, a positive control group, and an experimental group. […] Serially diluted α_CC8 was added to cells and incubated at 37 °C, 5% CO2 for 2 h initially, and then 50 μL 10 ng/mL human TNFα was added and incubated overnight (17 h). 1 μg/mL Etanercept was used as a positive control. Subsequently, 100 μL 5% CCK-8 was added per well, followed by incubation of 2 h. The control group consisted of normal cultured cells without TNFα stimulation, while the blank control group contained empty wells without cells. At last, cell viability was confirmed by measuring the absorbance of each well at 450 nm. Cell viability was calculated according to Formula (7). Data was analyzed with SPSSAU (https://spssau.com/, Accessed on 14 August 2023) using the paired t-test to compare the differences between the experimental and control groups.

TNFα = conditions: cited from earlier work
Text: Several potential small molecules of TNFα inhibitors have already been reported.

L929 cells = conditions: α_CC8, 200 μM, 24 h, CCK-8, 450 nm, n = 3
Experimental: L929 cells were seeded in a 96-well plate at a density of 8000 cells per well and cultured for 24 h under standard conditions. Then, the liquid in the wells was discarded, and 100 µL of medium containing different concentrations of cyclic peptides was added. After incubation for 24 h, the liquid in the well was discarded, and the medium was replaced with CCK-8 working solution (100 μL RPMI 1640 medium containing 5% CCK-8) and incubated in the dark for 2 h. The absorbance of each well at 450 nm was detected with a microplate reader. The same operation was performed with wells not seeded with cells as a blank group to eliminate systematic errors. Cell viability was calculated according to the following formula:(7) Cell viability(%)=(ODtest−ODblank)/(ODcontrol−ODblank)×100%

TNFα trimer = conditions: cited from earlier work
Text: Several potential small molecules of TNFα inhibitors have already been reported. […] Furthermore, through structure-based virtual screening and biological assay, Xie’s group identified two novel antagonists, T1 and R1 (Figure S1A), which could bind to TNFα or TNFR1, with low-micromolar binding affinities to TNFα and TNFR1, respectively ...

hTNFR1 = target: T1, hTNFR1 (Homo sapiens, UniProt P19438); test: ELISA binding affinity to hTNFR1
T1 sequence (P19438 30-455): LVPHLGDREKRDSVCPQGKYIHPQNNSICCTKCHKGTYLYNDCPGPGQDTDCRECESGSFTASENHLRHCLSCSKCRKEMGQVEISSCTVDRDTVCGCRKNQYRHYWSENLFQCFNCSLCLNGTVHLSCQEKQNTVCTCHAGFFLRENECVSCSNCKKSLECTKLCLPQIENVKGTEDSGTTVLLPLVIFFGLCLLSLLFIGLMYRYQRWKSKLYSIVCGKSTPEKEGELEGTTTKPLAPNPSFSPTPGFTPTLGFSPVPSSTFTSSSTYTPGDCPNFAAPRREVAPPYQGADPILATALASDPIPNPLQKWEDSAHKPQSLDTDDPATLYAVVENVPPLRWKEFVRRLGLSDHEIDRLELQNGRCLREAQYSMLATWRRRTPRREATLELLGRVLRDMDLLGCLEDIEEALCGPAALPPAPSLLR
Experimental: The hTNFR1 (100 ng) was coated on a 96-well ELISA plate (BIOFIL, Guangzhou, China) overnight at 4 °C, followed by blocking the plate with 200 μL of 3% skim milk solution in PBST (PBS, 0.05% Tween20) for 2 h at 37 °C. […] After incubating with the cyclic peptides for 2 h at room temperature, […] mAB (Solarbio, Beijing, China) was diluted at 1:500, and was incubated for an additional 2 h at room temperature. Five washes with PBST were carried out between each incubation to remove nonspecific absorbance. After the final wash, the samples were incubated in the dark with freshly prepared TMB Chromogen Solution (Sangon Biotech, Shanghai, China) for 10 min at room temperature to develop the signals. After adding the stop solution (1 M H2SO4), the plates were read at 450 nm on a plate reader. The raw data were processed to calculate the Kd value.

## Etanercept
[1]; Etanercept 1 μg/mL, positive control, L929 cells
  blocking effect compared with the cyclic peptides (in words): stronger blocking effect on the formation of TNFα/TNFR1
TNFα; background statement, no reference given
  TNFα binding (in words): strong ability to bind TNFα

## CC[C@H](C)[C@@H]1NC(=O)[C@H](CCCNC(=N)N)NC(=O)[C@H](CO)NC(=O)[C@H]([C@@H](C)CC)NC(=O)[C@H]([C@@H](C)O)NC(=O)[C@@H](N)CSSC[C@@H](C(=O)O)NC(=O)[C@H](CO)NC(=O)[C@H](CC(C)C)NC(=O)[C@H](CC(C)C)NC(=O)[C@H](CC(N)=O)NC(=O)[C@H](C(C)C)NC(=O)[C@H](CCCCN)NC(=O)[C@H]([C@@H](C)O)NC(=O)[C@H](CCC(N)=O)NC(=O)[C@H](Cc2ccc(O)cc2)NC(=O)[C@H](CO)NC(=O)[C@H](C(C)C)NC(=O)[C@H](C)NC1=O [α_CC8] (H-CTISRIAVSYQTKVNLLSC-OH; disulfide 1-19; N-terminus and C-terminus assumed)
L929 cells
  survival rate of L929 cells: ≤ 90%
[1]; L929 cells
  inhibition of TNFα-mediated cytotoxicity (in words): effectively inhibit the TNFα-mediated cytotoxicity; also recorded: better bioactivity and lower effective concentration than R1_CC4; also recorded: improve cell viability significantly by inhibiting TNFα-mediated necrosis; also recorded: higher biological activity and effective concentration than R1_CC4
[1]; L929 cells, human TNFα 10 ng/mL, 17 h, CCK-8, n = 3
  concentration at which survival rate increased significantly: 60 µM
[1]; α_CC8 60 μM, 2 h with cells, then human TNFα 17 h, n = 3
  increase of cell survival rate: 17.8%

## TNFα
[1]; TNFα alone, 10 ng/mL, 17 h, average
  survival rate of L929 cells after TNFα: 42%

## Cc1cc2occ(CN(C)CCN(C)Cc3cn(-c4cccc(C(F)(F)F)c4)c4ccccc34)c(=O)c2cc1C [SPD-304, reference compound]
TNFα trimer
  effect on TNFα trimer (in words): greatly increase the dissociation rate of the TNFα trimer
TNFα; TNFα small molecule antagonist
  Kd: 5.36 µM

## CC[C@H](C)[C@@H]1NC(=O)[C@H](CCCNC(=N)N)NC(=O)[C@H](CO)NC(=O)[C@H]([C@@H](C)CC)NC(=O)[C@H]([C@@H](C)O)NC(=O)[C@@H](N)CSSC[C@@H](C(=O)O)NC(=O)[C@H](CO)NC(=O)[C@H](CC(C)C)NC(=O)[C@H](CCCNC(=N)N)NC(=O)[C@H](CC(N)=O)NC(=O)[C@H](C(C)C)NC(=O)[C@H](CCCCN)NC(=O)[C@H]([C@@H](C)O)NC(=O)[C@H](CCC(N)=O)NC(=O)[C@H](Cc2ccc(O)cc2)NC(=O)[C@H](CO)NC(=O)[C@H](C(C)C)NC(=O)[C@H](CCCCN)NC1=O [L16R] (H-CTISRIKVSYQTKVNRLSC-OH; disulfide 1-19; N-terminus and C-terminus assumed)
hTNFR1
  binding to hTNFR1 (in words): good binding condition with hTNFR1

— paper PMC11547827, “Discovery of Cyclic Peptide Inhibitors Targeted on TNFα-TNFR1 from Computational Design and Bioactivity Verification” (Molecules, 2024)
